From publication PMC4527935 (Nature structural & molecular biology, 2015) come the findings set out here.

For test [1], the target named is T1, yeast AAC carrier 3 (yAAC3), mitochondrial ADP/ATP carrier (Saccharomyces cerevisiae, UniProt P18238). Nature of the test: NMR chemical shift titration. Format: binding.
For test [2], the target named is T1, yeast AAC carrier 3 (yAAC3), mitochondrial ADP/ATP carrier. The test can be described thus: ITC. Format: binding.

T1 sequence (P18238 whole entry): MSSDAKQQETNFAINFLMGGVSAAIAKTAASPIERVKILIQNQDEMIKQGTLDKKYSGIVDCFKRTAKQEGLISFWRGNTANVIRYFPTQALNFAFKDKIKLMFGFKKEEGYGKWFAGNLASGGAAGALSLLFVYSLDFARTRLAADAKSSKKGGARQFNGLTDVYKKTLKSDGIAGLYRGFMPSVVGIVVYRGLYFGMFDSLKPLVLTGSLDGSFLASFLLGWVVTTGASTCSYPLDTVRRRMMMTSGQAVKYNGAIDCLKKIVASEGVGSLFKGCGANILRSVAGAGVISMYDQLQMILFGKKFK

Consider `Nc1ncnc2c1ncn2[C@@H]1O[C@H](COP(=O)(O)OP(=O)(O)O)[C@@H](O)[C@H]1O` [ADP], for which the Kd in test [1] was about 500 µM.
In test [2], `C=C1[C@@H]2CC[C@H]3[C@]4(C)C[C@H](O[C@@H]5O[C@H](CO)[C@@H](OS(=O)(=O)O)[C@H](OS(=O)(=O)O)[C@H]5OC(=O)CC(C)C)CC(C(=O)O)(C(=O)O)[C@H]4CC[C@]3(C2)[C@H]1O` [CATR, carboxyatractyloside] yielded a Kd of 14.9 ± 9.6 µM.
